Key:
[1] = biological target: T1, IKZF2 (Helios) (Homo sapiens, UniProt Q9UKS7); assay: IKZF2 reporter degradation assay (HEK 293T IKZF2-mNeonGreen reporter cell line); type: cell-based; conditions: 24 hours incubation
T1 construct: Leu-Asp junction (codons ctcgac before the linker); mScarlet (behind P2A) (C, cleaved yes); expressed in transfected cells
How it was run: (§1)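 Stable clonal HEK 293T lines express each IKZF-mNeonGreen-P2A-mScarlet fusion. Cells were seeded, attached overnight, then given compound (≤0.5% DMSO, quadruplicate) for 24 h at 37° C. Imaged for percent mNeonGreen-positive cells, segmented on mScarlet. DC50 from four-parameter logistic fit.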

[2] = biological target: T2, IKZF2 (Helios) (Homo sapiens, UniProt Q96SW2+Q9UKS7); assay: as above; type: cell-based; conditions: HEK-293T, 24 h, 1 μM compound, HEK 293T IKZF2 reporter cells, 24 hours incubation
T2 construct: Leu-Asp junction (codons ctcgac before the linker); mScarlet (behind P2A) (C, cleaved yes); expressed in transfected cells
How it was run: as §1

[3] = biological target: T3, IKZF3 (Aiolos) (Homo sapiens, UniProt Q9UKT9); assay: IKZF3 reporter degradation assay (HEK 293T IKZF3-mNeonGreen reporter cell line); type: cell-based; conditions: 24 hours incubation
T3 construct: Leu-Asp junction (codons ctcgac before the linker); mScarlet (behind P2A) (C, cleaved yes); expressed in transfected cells
How it was run: as §1

[4] = biological target: T4, IKZF1 (Ikaros) (Homo sapiens, UniProt Q13422); assay: IKZF1 reporter degradation assay (HEK 293T IKZF1-mNeonGreen reporter cell line); type: cell-based; conditions: 24 hours incubation
T4 construct: mScarlet (behind P2A) (C, cleaved yes); expressed in transfected cells
Text: Polycistronic plasmids were constructed for the mammalian expression of fluorescent reporter fusions of human transcription factors IKZF1 (Ikaros), IKZF2 (Helios), and IKZF3 (Aiolos). The respective protein sequences had their C-terminal end joined to a GGGGS linker repeated three times followed by mNeonGreen, P2A sequence, and mScarlet. The DNA sequences of the open reading frames are as follows:
IKZF1, IKZF2, and IKZF3 constructs were cloned into the UCOE Hygromycin expression vectors (Millipore Sigma). Reporter constructs were transfected using cationic lipid reagents into adherent HEK 293T cells and stable integrants were selected by treatment with 200 μg/mL hygromycin B. Clonal populations were obtained from the population of stable integrants either by limiting dilution or fluorescence activated cell sorting.
The clonal stable cell lines were maintained under constant 200 μg/mL hygromycin B selection while being passaged for use in the degradation assays. […] The fluorescence intensity of the IKZF1/2/3-mNeonGreen (FITC channel) and mScarlet (PE channel) reporters were routinely analyzed by flow cytometry to confirm consistent expression levels between experiments.
The IKZF1/IKZF2/IKZF3 degradation assays were carried out by harvesting the HEK 293T reporter cell lines and resuspending the cells in media formulated for reduced background fluorescence (FluoroBrite; Thermo Fisher). The respective cell lines were seeded at a density of 4000 cells/well into black-walled 384-well optical grade assay tissue culture plates. The cells were incubated overnight at 37° C. to allow for attachment to the assay plate. Dilutions of the compounds were prepared in DMSO from 10 mM compound stocks. The assay plates were treated with appropriate concentrations of the compounds by dispensing the DMSO dilutions in quadruplicate wells with an upper limit of 0.5% final DMSO.
After 24 hours incubation with the compounds, the assay plates were imaged on an ImageXpress Pico microscopy system (cells maintained at 37° C. during imaging) to obtain the fluorescent readouts. The assay plates were imaged in the FITC and Tetramethylrhodamine (TRITC) channels to obtain the mNeonGreen fluorescence intensity (reporter degradation data) and mScarlet fluorescence intensity (for cell segmentation). 293T-IKZF1 and 293T-IKZF3 reporter cell lines were imaged with exposures of 500 milliseconds (ms) for both FITC and TRITC channels, while the 293T-IKZF2 reporter cell line was imaged with exposures of 1000 ms for FITC and 1250 ms for TRITC. The resulting data was analyzed with Cell Reporter Xpress software using the 2-channel cell scoring analysis with a “percent positive” readout. The TRITC channel was selected for the “nuclei” segmentation with a threshold of 20 while the FITC channel was selected for the “Marker 1” segmentation and a threshold of 100 for the IKZF1 and IKZF3 reporter lines. […] The minimum segmentation width was set to 6 micrometers and the maximum segmentation width was set to 15 micrometers for all cell lines. The DC50 calculations were determined by regression to best fit four-parameter logistic curves using GraphPad Prism.

[5] = biological target: T5, human E3 ligase component cereblon (CRBN) (Homo sapiens, UniProt Q96SW2); assay: Cereblon (CRBN) target engagement, NanoBRET TE Intracellular E3 Ligase Assay in transfected HEK-293T cells; conditions: read-out: CRBN Binding EC50
T5 construct: host or cells: HEK293T
How it was run: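 HEK-293T cells transiently co-transfected with NanoLuc-CRBN (N-terminal NanoLuc) and DDB1 were dosed with CRBN tracer and an 11-point compound series (typically 10 μM to 100 pM) for 2 h at 37° C. BRET at 450/610 nm gave IC50 by four-parameter logistic fit.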

[6] = HEK 293T IKZF2-mNeonGreen reporter
[7] = HEK 293T IKZF3-mNeonGreen reporter
[8] = HEK 293T IKZF1-mNeonGreen reporter

T2 sequence (Q9UKS7 whole entry): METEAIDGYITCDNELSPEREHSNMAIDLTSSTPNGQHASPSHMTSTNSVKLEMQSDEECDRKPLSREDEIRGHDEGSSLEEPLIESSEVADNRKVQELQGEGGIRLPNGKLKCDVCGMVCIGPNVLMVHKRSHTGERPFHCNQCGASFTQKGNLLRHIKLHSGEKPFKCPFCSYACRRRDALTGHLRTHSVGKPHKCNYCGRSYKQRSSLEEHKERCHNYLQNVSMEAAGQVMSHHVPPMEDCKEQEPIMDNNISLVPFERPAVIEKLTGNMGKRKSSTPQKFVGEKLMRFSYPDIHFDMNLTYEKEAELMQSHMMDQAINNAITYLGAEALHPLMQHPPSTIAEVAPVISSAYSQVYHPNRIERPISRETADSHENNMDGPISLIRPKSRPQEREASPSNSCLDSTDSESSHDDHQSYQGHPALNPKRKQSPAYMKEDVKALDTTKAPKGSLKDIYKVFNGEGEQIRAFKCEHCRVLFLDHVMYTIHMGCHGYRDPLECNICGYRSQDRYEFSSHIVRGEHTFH
T2 sequence (Q96SW2 whole entry): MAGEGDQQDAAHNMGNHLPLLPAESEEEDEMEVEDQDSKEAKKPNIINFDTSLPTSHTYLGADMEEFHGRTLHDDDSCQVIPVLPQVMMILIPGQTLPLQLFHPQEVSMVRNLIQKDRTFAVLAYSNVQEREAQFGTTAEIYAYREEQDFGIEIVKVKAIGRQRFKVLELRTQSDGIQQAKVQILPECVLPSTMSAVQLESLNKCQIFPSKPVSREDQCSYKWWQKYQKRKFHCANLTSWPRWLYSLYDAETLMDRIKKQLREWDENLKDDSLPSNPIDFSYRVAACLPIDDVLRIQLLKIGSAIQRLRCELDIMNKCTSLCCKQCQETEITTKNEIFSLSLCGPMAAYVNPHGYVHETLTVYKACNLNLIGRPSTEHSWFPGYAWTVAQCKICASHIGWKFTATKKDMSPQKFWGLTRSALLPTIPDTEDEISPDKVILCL
T2 sequence (Q16531 whole entry partner): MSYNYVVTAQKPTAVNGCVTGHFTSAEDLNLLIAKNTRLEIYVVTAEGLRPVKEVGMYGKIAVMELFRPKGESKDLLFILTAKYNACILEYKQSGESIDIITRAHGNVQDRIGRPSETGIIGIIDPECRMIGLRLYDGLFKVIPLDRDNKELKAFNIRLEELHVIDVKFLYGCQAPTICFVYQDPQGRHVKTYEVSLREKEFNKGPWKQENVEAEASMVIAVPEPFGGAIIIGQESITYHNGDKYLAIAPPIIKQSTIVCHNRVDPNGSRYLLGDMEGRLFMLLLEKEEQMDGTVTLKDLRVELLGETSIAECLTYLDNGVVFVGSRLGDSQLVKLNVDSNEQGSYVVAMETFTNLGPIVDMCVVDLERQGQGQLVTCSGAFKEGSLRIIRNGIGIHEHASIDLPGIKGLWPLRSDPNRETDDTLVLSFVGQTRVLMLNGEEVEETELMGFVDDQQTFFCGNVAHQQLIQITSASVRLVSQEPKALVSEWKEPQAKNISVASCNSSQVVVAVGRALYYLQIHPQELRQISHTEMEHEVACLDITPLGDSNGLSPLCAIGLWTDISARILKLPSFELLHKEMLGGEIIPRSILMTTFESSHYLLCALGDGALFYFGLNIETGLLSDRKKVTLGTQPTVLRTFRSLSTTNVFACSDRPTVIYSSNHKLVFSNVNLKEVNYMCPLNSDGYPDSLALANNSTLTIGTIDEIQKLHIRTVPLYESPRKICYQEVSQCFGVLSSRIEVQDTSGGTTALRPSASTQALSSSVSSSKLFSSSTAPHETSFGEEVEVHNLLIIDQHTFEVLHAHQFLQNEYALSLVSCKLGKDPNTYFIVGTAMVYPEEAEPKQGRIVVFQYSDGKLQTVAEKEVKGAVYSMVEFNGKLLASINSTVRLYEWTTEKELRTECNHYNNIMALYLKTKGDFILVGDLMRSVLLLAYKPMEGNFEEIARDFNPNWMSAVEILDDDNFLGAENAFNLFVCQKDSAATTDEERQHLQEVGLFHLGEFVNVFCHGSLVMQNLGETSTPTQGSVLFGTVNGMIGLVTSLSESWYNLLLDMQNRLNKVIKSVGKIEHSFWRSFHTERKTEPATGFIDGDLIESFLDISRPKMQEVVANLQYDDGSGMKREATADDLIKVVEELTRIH
T1 sequence (Q9UKS7 whole entry): as the sequence (Q9UKS7 whole entry) above
T1 sequence (Q96SW2 whole entry, further chain): as the sequence (Q96SW2 whole entry) above
T1 sequence (Q16531 whole entry partner): as the sequence (Q16531 whole entry partner) above
T3 sequence (Q96SW2 whole entry partner): as the sequence (Q96SW2 whole entry) above
T3 sequence (Q16531 whole entry partner): as the sequence (Q16531 whole entry partner) above
T3 sequence (Q9UKT9 whole entry): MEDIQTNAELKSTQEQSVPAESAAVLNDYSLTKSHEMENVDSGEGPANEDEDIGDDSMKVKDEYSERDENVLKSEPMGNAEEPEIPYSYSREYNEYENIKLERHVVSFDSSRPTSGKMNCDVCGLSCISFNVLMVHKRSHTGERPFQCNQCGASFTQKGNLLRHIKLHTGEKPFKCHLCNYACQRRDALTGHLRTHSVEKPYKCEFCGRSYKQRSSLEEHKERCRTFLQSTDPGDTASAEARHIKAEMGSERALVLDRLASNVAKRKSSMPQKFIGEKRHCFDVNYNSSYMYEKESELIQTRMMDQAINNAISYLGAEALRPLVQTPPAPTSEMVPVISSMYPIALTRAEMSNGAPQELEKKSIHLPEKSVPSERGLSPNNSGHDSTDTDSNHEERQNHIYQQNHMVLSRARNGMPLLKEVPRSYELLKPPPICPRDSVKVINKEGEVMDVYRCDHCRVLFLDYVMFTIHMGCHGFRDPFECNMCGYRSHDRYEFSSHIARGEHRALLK
T5 sequence (Q96SW2 whole entry): as the sequence (Q96SW2 whole entry) above
T5 sequence (Q16531 whole entry partner): as the sequence (Q16531 whole entry partner) above
T4 sequence (Q96SW2 whole entry partner): as the sequence (Q96SW2 whole entry) above
T4 sequence (Q16531 whole entry partner): as the sequence (Q16531 whole entry partner) above
T4 sequence (Q13422 whole entry): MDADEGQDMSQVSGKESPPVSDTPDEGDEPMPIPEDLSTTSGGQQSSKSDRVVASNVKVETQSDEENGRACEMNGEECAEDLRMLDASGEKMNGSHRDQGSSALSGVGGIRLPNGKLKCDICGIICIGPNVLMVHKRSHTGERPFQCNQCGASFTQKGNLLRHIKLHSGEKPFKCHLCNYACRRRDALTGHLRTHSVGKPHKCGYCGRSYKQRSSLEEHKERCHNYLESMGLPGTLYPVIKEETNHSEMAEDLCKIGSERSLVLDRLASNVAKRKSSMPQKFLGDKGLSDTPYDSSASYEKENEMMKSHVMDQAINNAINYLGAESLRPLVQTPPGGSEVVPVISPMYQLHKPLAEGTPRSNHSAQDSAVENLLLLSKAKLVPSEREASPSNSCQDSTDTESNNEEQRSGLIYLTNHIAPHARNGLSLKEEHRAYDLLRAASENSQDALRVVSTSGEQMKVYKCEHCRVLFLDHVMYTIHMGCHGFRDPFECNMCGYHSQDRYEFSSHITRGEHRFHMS

| SMILES | DC50 ([1]; HEK 293T IKZF2 reporter cells) | inhibition at 1 µM [2] | DC50 ([3]; HEK 293T IKZF3 reporter cells) | DC50 ([4]; HEK 293T IKZF1 reporter cells) | DC50 [1, 6] | EC50 [5] | DC50 [3, 7] | DC50 [4, 8] |
| --- | --- | --- | --- | --- | --- | --- | --- | --- |
| COc1cc(C2CN(C3CCCCC3Oc3ccc4c(c3)CN(C3CCC(=O)NC3=O)C4=O)C2)ccn1 (stereo not drawn) [Compound 11-B, 3-(5-((2-(3-(2-methoxypyridin-4-yl)azetidin-1-yl)cyclohexyl)oxy)-1-oxoisoindolin-2-yl)piperidine-2,6-dione] | 0.0207 µM | 78.2% | > 30 µM | > 30 µM |  |  |  |  |
| O=C1CCC(N2Cc3cc(O[C@H]4CCCC[C@@H]4N4CC(n5cccn5)C4)ccc3C2=O)C(=O)N1 (stereo partly drawn) [Compound 81-B, 3-(5-(((1S,2S)-2-(3-(1H-pyrazol-1-yl)azetidin-1-yl)cyclohexyl)oxy)-1-oxoisoindolin-2-yl)piperidine-2,6-dione] | 0.0965 µM | 78% | > 30 µM | > 30 µM |  |  |  |  |
| O=C1CCC(N2Cc3cc(OC4CCCCC4N4CC(c5cnccn5)C4)ccc3C2=O)C(=O)N1 (stereo not drawn) [Compound 2-B, 3-(1-oxo-5-((2-(3-(pyrazin-2-yl)azetidin-1-yl)cyclohexyl)oxy)isoindolin-2-yl)piperidine-2,6-dione] | 0.12 µM | 63.1% | > 30 µM | > 30 µM |  |  |  |  |
| O=C1CCC(N2Cc3cc(OC4CCCCC4N4CC(c5ncccn5)C4)ccc3C2=O)C(=O)N1 (stereo not drawn) [Compound 46-B, 3-(1-oxo-5-((2-(3-(pyrimidin-2-yl)azetidin-1-yl)cyclohexyl)oxy)isoindolin-2-yl)piperidine-2,6-dione] | 0.232 µM | 39% | > 30 µM | > 30 µM |  |  |  |  |
| O=C1CCC(N2Cc3cc(O[C@H]4CCCC[C@@H]4N4CC(C5CCOCC5)C4)ccc3C2=O)C(=O)N1 (stereo partly drawn) [Compound 1-A, 3-(1-oxo-5-(((1S,2S)-2-(3-(tetrahydro-2H-pyran-4-yl)azetidin-1-yl)cyclohexyl)oxy)isoindolin-2-yl)piperidine-2,6-dione] | 0.00889 µM | 83.4% | > 30 µM | > 30 µM |  |  |  |  |
| O=C1CCC(N2Cc3cc(OC4CCCCC4N4CC(c5ccncc5)C4)ccc3C2=O)C(=O)N1 (stereo not drawn) [Compound 31-B, 3-(1-oxo-5-((2-(3-(pyridin-4-yl)azetidin-1-yl)cyclohexyl)oxy)isoindolin-2-yl)piperidine-2,6-dione] | 0.0478 µM | 74% | > 30 µM | > 30 µM |  |  |  |  |
| O=C1CCC(N2Cc3cc(OC4CCC[C@@H]4N4CC(c5cccnc5)C4)ccc3C2=O)C(=O)N1 (mixture of isomers) [Compound 208-B, Rac-3-(1-oxo-5-(((trans)-2-(3-(pyridin-3-yl)azetidin-1-yl)cyclopentyl)oxy)isoindolin-2-yl)piperidine-2,6-dione] |  |  |  |  | > 30 µM | 0.076 µM | > 30 µM | > 30 µM |
| O=C1CCC(N2Cc3cc(O[C@H]4CCCC4N4CC(c5ccnc6ccccc56)C4)ccc3C2=O)C(=O)N1 (mixture of isomers) [Compound 195-B, Rac-3-(1-oxo-5-(((trans)-2-(3-(quinolin-4-yl)azetidin-1-yl)cyclopentyl)oxy)isoindolin-2-yl)piperidine-2,6-dione] |  |  |  |  | > 30 µM | 0.024 µM | > 30 µM | > 30 µM |
| COc1ccc(C2CN([C@H]3CCCC3Oc3ccc4c(c3)CN(C3CCC(=O)NC3=O)C4=O)C2)cn1 (mixture of isomers) [Compound 202-B, Rac-3-(5-(((trans)-2-(3-(6-methoxypyridin-3-yl)azetidin-1-yl)cyclopentyl)oxy)-1-oxoisoindolin-2-yl)piperidine-2,6-dione] |  |  |  |  | > 30 µM | 0.029 µM | > 30 µM | > 30 µM |
| O=C1CCC(N2Cc3cc(OC4CCCCC4N4CC(c5cccc6[nH]ncc56)C4)ccc3C2=O)C(=O)N1 (stereo not drawn) [Compound 71-B, 3-(5-((2-(3-(1H-indazol-4-yl)azetidin-1-yl)cyclohexyl)oxy)-1-oxoisoindolin-2-yl)piperidine-2,6-dione] | 0.0283 µM | 79.3% | > 30 µM | > 30 µM |  |  |  |  |
| O=C1CCC(N2Cc3cc(OC4CCC[C@@H]4N4CC(c5cncnc5)C4)ccc3C2=O)C(=O)N1 (mixture of isomers) [Compound 197-B, Rac-3-(1-oxo-5-(((trans)-2-(3-(pyrimidin-5-yl)azetidin-1-yl)cyclopentyl)oxy)isoindolin-2-yl)piperidine-2,6-dione] |  |  |  |  | > 30 µM | 0.138 µM | > 30 µM | > 30 µM |
| O=C1CCC(N2Cc3cc(OC4CCCCC4N4CC(c5ccnc6ccccc56)C4)ccc3C2=O)C(=O)N1 (stereo not drawn) [Compound 66-B, 3-(1-oxo-5-((2-(3-(quinolin-4-yl)azetidin-1-yl)cyclohexyl)oxy)isoindolin-2-yl)piperidine-2,6-dione] | 0.0132 µM | 86.4% | > 30 µM | > 30 µM |  |  |  |  |
| O=C1CCC(N2Cc3cc(OC4CCCCC4N4CC(c5ncc(F)cn5)C4)ccc3C2=O)C(=O)N1 (stereo not drawn) [Compound 6-B, 3-(5-((2-(3-(5-fluoropyrimidin-2-yl)azetidin-1-yl)cyclohexyl)-oxy)-1-oxoisoindolin-2-yl)piperidine-2,6-dione] | 0.0299 µM | 74.9% | > 30 µM | > 30 µM |  |  |  |  |
| O=C1CCC(N2Cc3cc(OC4CCC[C@@H]4N4CC(c5ccncc5)C4)ccc3C2=O)C(=O)N1 (mixture of isomers) [Compound 206-B, Rac-3-(1-oxo-5-(((trans)-2-(3-(pyridin-4-yl)azetidin-1-yl)cyclopentyl)oxy)isoindolin-2-yl)piperidine-2,6-dione] |  |  |  |  | > 30 µM | 0.071 µM | > 30 µM | > 30 µM |
| O=C1CCC(N2Cc3cc(OC4CCC[C@@H]4N4CC(c5ccccn5)C4)ccc3C2=O)C(=O)N1 (mixture of isomers) [Compound 210-B, Rac-3-(1-oxo-5-(((trans)-2-(3-(pyridin-2-yl)azetidin-1-yl)cyclopentyl)oxy)isoindolin-2-yl)piperidine-2,6-dione] |  |  |  |  | > 30 µM | 0.122 µM | > 30 µM | > 30 µM |
| O=C1CCC(N2Cc3cc(O[C@H]4CCCC[C@@H]4N4CC(n5ccnc5)C4)ccc3C2=O)C(=O)N1 (stereo partly drawn) [Compound 176-B, 3-(5-(((1S,2S)-2-(3-(1H-imidazol-1-yl)azetidin-1-yl)cyclohexyl)oxy)-1-oxoisoindolin-2-yl)piperidine-2,6-dione] |  |  |  |  | 2.1 µM | 0.899 µM | > 30 µM | > 30 µM |
| O=C1CCC(N2Cc3cc(O[C@H]4CCCC[C@@H]4N4CC(c5ccc(C(F)(F)F)nc5)C4)ccc3C2=O)C(=O)N1 (mixture of isomers) [Compound 191-B, Rac-3-(1-oxo-5-(((trans)-2-(3-(6-(trifluoromethyl)pyridin-3-yl)azetidin-1-yl)cyclohexyl)oxy)isoindolin-2-yl)piperidine-2,6-dione] |  |  |  |  | > 30 µM | 0.031 µM | > 30 µM | > 30 µM |
| O=C1CCC(N2Cc3cc(OC4CCCC4N4CC(c5ncc(Cl)cn5)C4)ccc3C2=O)C(=O)N1 (stereo not drawn) [Compound 200-B, 3-(5-((2-(3-(5-chloropyrimidin-2-yl)azetidin-1-yl)cyclopentyl)oxy)-1-oxoisoindolin-2-yl)piperidine-2,6-dione] |  |  |  |  | > 30 µM | 0.02 µM | > 30 µM | > 30 µM |

— patent US20250100996A1, “HETEROCYCLOALKYL AND HETEROARYL COMPOUNDS AND PHARMACEUTICAL COMPOSITIONS THAT MODULATE IKZF2” (Plexium, Inc., priority 2021, published 2025)
